MIC and IC50 data for six compounds are collected here from ChEMBL document CHEMBL4402510, “Caprazamycins: Promising lead structures acting on a novel antibacterial target MraY” (Eur J Med Chem, 2019).

Converted amounts (≈) assume the structure as drawn.

Test [1] deals with Enterococcus faecalis. The test can be described thus: Antibacterial activity against t Enterococcus faecalis after 20 hrs by NCCLS-based two-fold broth dilution method. It counts as functional. The settings on record: read-out: MIC.
The subject of test [2] is Staphylococcus aureus. As to the kind of experiment: Antibacterial activity against methicillin resistant Staphylococcus aureus SR3637. Format: functional.
Test [3] deals with Enterococcus faecalis. The test can be described thus: Antibacterial activity against Enterococcus faecalis SR7914 (VRE). Format: functional.
Test [4] has as its system Acinetobacter baumannii. The test can be described thus: Antibacterial activity against Acinetobacter baumannii ATCC 19606. The note with it: ATCC 19606 = CIP 70.34 = JCM 6841. Format: functional.
The test system of test [5] is Staphylococcus aureus. As to the kind of experiment: Antibacterial activity against methicillin susceptible Staphylococcus aureus ATCC 29213. Format: functional.
The test system of test [6] is Enterococcus faecalis. As to the kind of experiment: Antibacterial activity against t Enterococcus faecalis VRE after 20 hrs by NCCLS-based two-fold broth dilution method. It counts as functional. The settings on record: read-out: MIC.
The test system of test [7] is Enterococcus faecalis. The test can be described thus: Antibacterial activity against Enterococcus faecalis ATCC 29212. It counts as functional.
Test [8] has as its target T1, Phospho-N-acetylmuramoyl-pentapeptide-transferase (Staphylococcus aureus, UniProt P0C1R8).
T1 sequence (P0C1R8 whole entry): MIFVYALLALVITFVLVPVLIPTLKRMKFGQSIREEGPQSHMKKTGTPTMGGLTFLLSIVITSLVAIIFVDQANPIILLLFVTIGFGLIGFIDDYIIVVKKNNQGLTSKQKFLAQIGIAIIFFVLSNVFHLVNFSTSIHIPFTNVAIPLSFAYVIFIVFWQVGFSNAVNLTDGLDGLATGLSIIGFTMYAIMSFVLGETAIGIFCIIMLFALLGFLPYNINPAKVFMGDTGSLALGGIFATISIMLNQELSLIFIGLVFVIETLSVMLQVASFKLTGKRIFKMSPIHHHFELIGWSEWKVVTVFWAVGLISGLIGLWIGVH
As to the kind of experiment: Inhibition of MraY in Staphylococcus aureus.

In test [9] the test system is Pseudomonas aeruginosa. As to the kind of experiment: Antibacterial activity against Pseudomonas aeruginosa YY165. It counts as functional.
Test [10] has as its system Staphylococcus aureus. As to the kind of experiment: Antibacterial activity against methicillin susceptible Staphylococcus aureus after 20 hrs by NCCLS-based two-fold broth dilution method. It counts as functional. The settings on record: read-out: MIC.
Test [11] relates to Enterococcus faecium. As to the kind of experiment: Antibacterial activity against t Enterococcus faecium VRE after 20 hrs by NCCLS-based two-fold broth dilution method. It counts as functional. The settings on record: read-out: MIC.
For test [12], the system named is Enterococcus faecium. As to the kind of experiment: Antibacterial activity against t Enterococcus faecium after 20 hrs by NCCLS-based two-fold broth dilution method. It counts as functional.
The test system of test [13] is Enterococcus faecium. The test can be described thus: Antibacterial activity against Enterococcus faecium ATCC 19434. It counts as functional.
The subject of test [14] is Streptococcus pneumoniae. As to the kind of experiment: Antibacterial activity against Streptococcus pneumoniae. It counts as functional.
Test [15] deals with Enterococcus faecium. The test can be described thus: Antibacterial activity against Enterococcus faecium SR7917 (VRE). It counts as functional.
The subject of test [16] is Staphylococcus aureus. The test can be described thus: Antibacterial activity against methicillin resistant Staphylococcus aureus after 20 hrs by NCCLS-based two-fold broth dilution method. The settings on record: read-out: MIC. It counts as functional.
The test system of test [17] is Escherichia coli. The test can be described thus: Antibacterial activity against Escherichia coli after 20 hrs by NCCLS-based two-fold broth dilution method. It counts as functional.
In test [18] the test system is Escherichia coli. The test can be described thus: Antibacterial activity against Escherichia coli ATCC 25922. Format: functional.
In test [19] the test system is Haemophilus influenzae. The test can be described thus: Antibacterial activity against Haemophilus influenzae ATCC 10211. Format: functional.
For test [20], the system named is Pseudomonas aeruginosa. The test can be described thus: Antibacterial activity against Pseudomonas aeruginosa PAO1 deltamexB. Format: functional.
The subject of test [21] is Haemophilus influenzae. As to the kind of experiment: Antibacterial activity against Haemophilus influenzae after 20 hrs by NCCLS-based two-fold broth dilution method. It counts as functional.
In test [22] the test system is Mycobacterium tuberculosis. As to the kind of experiment: Antibacterial activity against Mycobacterium tuberculosis. It counts as functional.
Test [23] deals with Mycobacterium avium. As to the kind of experiment: Antibacterial activity against Mycobacterium avium. Format: functional.
The test system of test [24] is Mycolicibacterium smegmatis. The test can be described thus: Antibacterial activity against Mycobacterium smegmatis. It counts as functional.
Test [25] has as its system Mycobacterium intracellulare. As to the kind of experiment: Antibacterial activity against Mycobacterium intracellulare. Format: functional.
Test [26] concerns Pseudomonas aeruginosa. The test can be described thus: Antibacterial activity against Pseudomonas aeruginosa after 20 hrs by NCCLS-based two-fold broth dilution method. Format: functional.

With `CCCCCCCCCCCCCCCC(=O)N[C@@H]1CCN[C@@H]([C@@H](O[C@@H]2O[C@H](CN)[C@@H](O)[C@H]2O)[C@H]2O[C@@H](n3ccc(=O)[nH]c3=O)[C@H](O)[C@@H]2O)C1`, the MIC is 32 µg/mL (≈ 45 µM) in test [1]; 32 µg/mL (≈ 45 µM) in [2]; 32 µg/mL (≈ 45 µM) in test [3]; over 64 µg/mL in [4]; 16 µg/mL (≈ 22.5 µM) in test [5]; 32 µg/mL (≈ 45 µM) in test [6]. Besides, the MIC in [7] was 32 µg/mL (≈ 45 µM); in test [9], over 64 µg/mL; in test [10], 16 µg/mL (≈ 22.5 µM); in test [11], 16 µg/mL (≈ 22.5 µM); in [12], 32 µg/mL (≈ 45 µM); in [13] it was 32 µg/mL (≈ 45 µM). The MIC is 64 µg/mL (≈ 89.9 µM) in test [14]; 16 µg/mL (≈ 22.5 µM) in [15]; 32 µg/mL (≈ 45 µM) in [16]; 32 µg/mL (≈ 45 µM) in test [17]; 32 µg/mL (≈ 45 µM) in [18]; over 64 µg/mL in [19]. Moreover, in test [20], the MIC was over 64 µg/mL. In addition, the IC50 in test [8] was over 2700 µM.

With `CCCCCCCCCCCCCCCC(=O)N[C@H]1CCN[C@H]([C@@H](O[C@@H]2O[C@H](CN)[C@@H](O)[C@H]2O)[C@H]2O[C@@H](n3ccc(=O)[nH]c3=O)[C@H](O)[C@@H]2O)C1`, the MIC in test [1] is 16 µg/mL (≈ 22.5 µM); in test [2], 16 µg/mL (≈ 22.5 µM); in test [3], 16 µg/mL (≈ 22.5 µM); in [4] it was over 64 µg/mL; in [5], 8 µg/mL (≈ 11.2 µM); in test [6], 16 µg/mL (≈ 22.5 µM). Besides, the MIC in test [7] was 16 µg/mL (≈ 22.5 µM); in [9] it was over 64 µg/mL; in [10], 8 µg/mL (≈ 11.2 µM); in test [11], 8 µg/mL (≈ 11.2 µM); in test [12] it was 32 µg/mL (≈ 45 µM); in test [13] it was 32 µg/mL (≈ 45 µM). Also, the MIC was 64 µg/mL (≈ 89.9 µM) in [14]; 8 µg/mL (≈ 11.2 µM) in test [15]; 16 µg/mL (≈ 22.5 µM) in test [16]; 32 µg/mL (≈ 45 µM) in test [17]; 32 µg/mL (≈ 45 µM) in test [18]; over 64 µg/mL in test [19]. The compound also returned an MIC in test [20] of over 64 µg/mL. In test [8], this compound showed an IC50 of over 2700 µM.

Regarding `CCCCCCCCCCCCCCCC(=O)OC[C@@H]1[C@H](C(N)=O)[C@H]([C@H]2O[C@@H](n3ccc(=O)[nH]c3=O)[C@H](O)[C@@H]2O)ON1CCCN`, the MIC in test [1] is 16 µg/mL (≈ 24.5 µM); in test [6] it was 4 to 8 µg/mL (≈ 6.12 to 12.2 µM); in test [21], 0.25 to 0.5 µg/mL (≈ 0.382 to 0.765 µM).

Regarding `CCCCCCCCCCCCCCCC(=O)OC[C@H]1[C@@H](C(=O)N(C)C)[C@H]([C@H]2O[C@@H](n3ccc(=O)[nH]c3=O)[C@H](O)[C@@H]2O)ON1CCCN`, the MIC in [21] and in [19] was 1 µg/mL (≈ 1.47 µM) each time.

`CO[C@@H]1[C@@H](OC)[C@H](C)O[C@@H](OC(=O)C[C@@H](C)CC(=O)O[C@@H](CCCCCCCCC(C)C)CC(=O)O[C@H]2CN(C)[C@@H]([C@H](O[C@@H]3O[C@H](CN)[C@@H](O)[C@H]3O)[C@H]3O[C@@H](n4ccc(=O)[nH]c4=O)[C@H](O)[C@@H]3O)C(=O)N(C)[C@@H]2C(=O)O)[C@@H]1OC`: the MIC in [22] is 1.56 µg/mL (≈ 1.4 µM); in test [23], 0.1 µg/mL (≈ 0.0894 µM); in [24] it was 0.78 to 1.56 µg/mL (≈ 0.698 to 1.4 µM); in test [25] it was 1.56 µg/mL (≈ 1.4 µM).

Consider `CCCCCCCCCCCCCCCC(=O)N[C@H]1CCN[C@H]([C@H](O[C@@H]2O[C@H](CN)[C@@H](O)[C@H]2O)[C@H]2O[C@@H](n3ccc(=O)[nH]c3=O)[C@H](O)[C@@H]2O)C1`, for which the MIC was 8 µg/mL (≈ 11.2 µM) in [1]; 8 µg/mL (≈ 11.2 µM) in [2]; 8 µg/mL (≈ 11.2 µM) in test [3]; over 64 µg/mL in test [4]; 8 µg/mL (≈ 11.2 µM) in test [5]; 8 µg/mL (≈ 11.2 µM) in test [6]. For the same compound, the MIC in test [7] amounted to 8 µg/mL (≈ 11.2 µM); in test [9] it was 32 µg/mL (≈ 45 µM); in [10], 8 µg/mL (≈ 11.2 µM); in test [11], 4 µg/mL (≈ 5.62 µM); in [12], 8 µg/mL (≈ 11.2 µM); in test [13] it was 8 µg/mL (≈ 11.2 µM). For the same compound, the MIC in [21] was 32 µg/mL (≈ 45 µM); in [14], over 64 µg/mL; in test [26], 32 µg/mL (≈ 45 µM); in test [15], 4 µg/mL (≈ 5.62 µM); in [16], 8 µg/mL (≈ 11.2 µM); in test [17] it was 16 µg/mL (≈ 22.5 µM). Besides, the MIC was 16 µg/mL (≈ 22.5 µM) in test [18], 32 µg/mL (≈ 45 µM) in [19] and over 64 µg/mL in test [20].
